{"source": "patent US11465995B2", "about": "“Crystal and salt forms of tricyclic compound and preparation process thereof” (SHIJIAZHUANG SAGACITY NEW DRUG DEVELOPMENT COMPANY, LTD., priority 2018, dated 2022)", "key": {"[1]": {"system": "TNBS-induced acute infectious bowel disease (IBD) model", "assay": "Pharmacodynamic test on TNBS-induced acute infectious bowel disease (IBD) model in female SD rats", "type": "in vivo", "design": "Ulcer score / Inflammation score / Total injury score: scale not given here", "conditions": "for Injury area (cm^2) / Ulcer area (cm^2) / Inflammation score / Total injury score / Ulcer score: mean ± sem; for Inflammation score / Total injury score / Ulcer score: colon pathological test", "description": "Female SD rats were divided into 7 groups, that is, model group, prednisolone-10 mg/kg group, Ozanimod-0.3 mg/kg group, Ozanimod-1.0 mg/kg group, Compound 1-0.1 mg/kg group, Compound 1-0.3 mg/kg group, Compound 1-0.6 mg/kg group. All animals were deeply anesthetized with pentobarbital sodium, and TNBS-50% alcohol solution was inserted into the intestinal cavity from the anus for modeling. The animal's anus was squeezed, and the animal was allowed to stand upside down for 5 min. The animals were returned to the cage after assured to be leak free.\nThe test compounds were administered orally 1 h after modeling, once a day for 7 days. The model group was given an equal volume of drug vehicle. The animals were weighed daily before administration of the test compound and were monitored for daily fecal traits and given clinical observation scores. The day after the last administration, all animals were euthanized. The colons were collected (anal to nodular part), the length and weight of the colons were measured, and the gross anatomical scores of the lesion sizes was taken. The gross anatomical images of the colon lesions were recorded, and the tissues were fixed in 10% neutral formalin solution and were subjected to histopathological analysis."}, "[2]": {"assay": "Stability test of Crystal Form A solid (accelerated, 40° C./75% humidity, open)", "type": "physicochemical", "description": "Crystal Form A was placed in an opening container with constant temperature and humidity for accelerated test, under the conditions of 40° C./75% humidity (open). Samples were taken at 1st, 2nd, 3rd month for testing, and the test results were compared with initial results of day 0."}, "[3]": {"system": "blood lymphocytes", "assay": "Effects of single oral administration on blood lymphocytes in rats", "type": "in vivo, SD rats", "conditions": "1.0 mg/kg single oral; for Percentage of lymphocytes in white blood cells in a unit volume of blood (%) / Rate of change of lymphocytes in blood after administration (%): mean ± SEM", "description": "Normal SPF grade male SD rats were administered by single oral gavage. The experiment contained five groups: the vehicle control group, the reference compound Ozanimod group, Compound 1-0.3 mg/kg dose group, Compound 1-1.0 mg/kg dose group, Compound 1-3 mg/kg dose group. Blood was collected 0.5 h before administration and 4, 8, 24 h after administration, and anticoagulated with 10% K2-EDTA. The anticoagulated blood sample was placed in 4° C. environment, diluted 1:4 with normal saline, and quickly tested with a hematology analyzer to calculate the number of lymphocytes per liter of blood and the percentage in the total white blood cells. Graphpad prism 6.0 software was used to calculate the mean±standard error, and the two-way ANOVA test was used to test the significance of the difference. When p<0.05, there was a significant difference between two groups."}, "[4]": {"assay": "Pharmacokinetic evaluation in SD rats", "type": "in vivo", "conditions": "Sprague Dawley, rat, plasma, 3 mg/kg, male, intravenous injection and oral administration, Ozanimod at 3 mpk", "description": "This Example is provided to test pharmacokinetics of compounds in SD rats.\nMaterials: Sprague Dawley rats (male, 200-300 g, 7-9 weeks, Shanghai SLAC)\nProcedures: The rodent pharmacokinetic characteristics of the compound after intravenous injection and oral administration were tested according to standard protocol. In the test, the candidate compound was formulated as a clear solution, and the rats were given a single intravenous injection and oral administration. The intravenous and oral vehicles were a hydroxypropyl β cyclodextrin aqueous solution in a certain proportion or normal saline solution. The whole blood sample within 24 h was collected, centrifuged at 3000 g for 15 min, and the supernatant was separated to give the plasma sample. 4 volumes of acetonitrile solution containing internal standard was added to precipitate protein and after centrifugation the supernatant was collected and added with equal volume of water. After further centrifugation, the supernatant was used for injection. Quantitative analysis of blood drug concentration was done by LC-MS/MS analysis method and pharmacokinetic parameters were calculated, such as Cmax, Tmax, clearance, half-life, area under the curve of drug concentration-time, bioavailability, etc."}, "[5]": {"conditions": "10 mg/kg oral once a day for 7 days"}, "[6]": {"conditions": "40° C./75% humidity (Open), 1 month"}, "[7]": {"conditions": "40° C./75% humidity (Open), 2 months"}, "[8]": {"conditions": "40° C./75% humidity (Open), 3 months"}, "[9]": {"conditions": "0.3 mg/kg oral once a day for 7 days"}, "[10]": {"conditions": "1.0 mg/kg oral once a day for 7 days"}}, "data": [{"smiles": "C[C@]12C=CC(=O)C=C1CC[C@@H]1[C@@H]2[C@@H](O)C[C@@]2(C)[C@H]1CC[C@]2(O)C(=O)CO", "note": "[Prednisolone]", "values": [{"measurement": "Injury area (cm^2)", "setting": "[1]; [5]", "result": "4.45 ± 0.82", "unit": "cm^2"}, {"measurement": "Ulcer area (cm^2)", "setting": "[1]; [5]", "result": "1.58 ± 0.53", "unit": "cm^2"}, {"measurement": "colon ulcers (dissection at the end of the experiment)", "setting": "[1]; 10 mg/kg, compared to the model group", "result": "not reduced"}, {"measurement": "Inflammation score", "setting": "[1]; 10 mg/kg", "result": "3.00 ± 0.33"}, {"measurement": "Total injury score", "setting": "[1]; 10 mg/kg", "result": "5.00 ± 0.63"}, {"measurement": "Ulcer score", "setting": "[1]; 10 mg/kg", "result": "2.00 ± 0.38"}]}, {"smiles": "CC(C)Oc1ccc(-c2nc(-c3cccc4c3C[C@@H]3CC(=O)N(CCO)[C@H]43)no2)cc1C#N", "note": "[Crystal Form A]", "values": [{"measurement": "Appearance", "setting": "[2]; [6]", "result": "White powder"}, {"measurement": "Content (%)", "setting": "[2]; [6]", "result": 101.4, "unit": "%"}, {"measurement": "Total Impurity (%)", "setting": "[2]; [6]", "result": 0.31, "unit": "%"}, {"measurement": "Appearance", "setting": "[2]; [7]", "result": "White powder"}, {"measurement": "Content (%)", "setting": "[2]; [7]", "result": 98.8, "unit": "%"}, {"measurement": "Total Impurity (%)", "setting": "[2]; [7]", "result": 0.34, "unit": "%"}, {"measurement": "Appearance", "setting": "[2]; [8]", "result": "White powder"}, {"measurement": "Content (%)", "setting": "[2]; [8]", "result": 101.8, "unit": "%"}, {"measurement": "Total Impurity (%)", "setting": "[2]; [8]", "result": 0.32, "unit": "%"}, {"measurement": "amount of total impurity (change over the test)", "setting": "[2]; 40° C./75% humidity (open), up to 3 months vs day 0", "result": "did not increase"}, {"measurement": "Appearance", "setting": "[2]; Initial, 0 month", "result": "White powder"}, {"measurement": "Content (%)", "setting": "[2]; Initial, 0 month", "result": 101.6, "unit": "%"}, {"measurement": "Total Impurity (%)", "setting": "[2]; Initial, 0 month", "result": 0.33, "unit": "%"}]}, {"smiles": "CC(C)Oc1ccc(-c2nc(-c3cccc4c3CC[C@@H]4NCCO)no2)cc1C#N", "note": "[Ozanimod, reference compound]", "values": [{"measurement": "Percentage of lymphocytes in white blood cells in a unit volume of blood (%)", "setting": "[3]; 4 h", "result": "44.53 ± 3.75", "unit": "%"}, {"measurement": "Rate of change of lymphocytes in blood after administration (%)", "setting": "[3]; 4 h", "result": "−71.79 ± 2.51", "unit": "%"}, {"measurement": "maximum decreasing rate of the number of blood lymphocytes", "setting": "[3]; 8 h", "result": 84.39, "unit": "%"}, {"measurement": "Percentage of lymphocytes in white blood cells in a unit volume of blood (%)", "setting": "[3]; 8 h", "result": "35.69 ± 2.47^****$ %"}, {"measurement": "Rate of change of lymphocytes in blood after administration (%)", "setting": "[3]; 8 h", "result": "−84.39 ± 1.16", "unit": "%"}, {"measurement": "blood lymphocyte decreasing rate", "setting": "[3]; 24 h", "result": 47.26, "unit": "%"}, {"measurement": "Percentage of lymphocytes in white blood cells in a unit volume of blood (%)", "setting": "[3]; 24 h", "result": "58.63 ± 2.17", "unit": "%"}, {"measurement": "Rate of change of lymphocytes in blood after administration (%)", "setting": "[3]; 24 h", "result": "−47.26 ± 4.34", "unit": "%"}, {"measurement": "Percentage of lymphocytes in white blood cells in a unit volume of blood (%)", "setting": "[3]; −0.5 h (before administration)", "result": "58.67 ± 1.61", "unit": "%"}, {"measurement": "Injury area (cm^2)", "setting": "[1]; [9]", "result": "4.76 ± 0.33", "unit": "cm^2"}, {"measurement": "Ulcer area (cm^2)", "setting": "[1]; [9]", "result": "1.12 ± 0.31", "unit": "cm^2"}, {"measurement": "Injury area (cm^2)", "setting": "[1]; [10]", "result": "4.60 ± 0.71", "unit": "cm^2"}, {"measurement": "Ulcer area (cm^2)", "setting": "[1]; [10]", "result": "1.36 ± 0.48", "unit": "cm^2"}, {"measurement": "Inflammation score", "setting": "[1]; 0.3 mg/kg", "result": "3.71 ± 0.42"}, {"measurement": "Total injury score", "setting": "[1]; 0.3 mg/kg", "result": "6.29 ± 0.75"}, {"measurement": "Ulcer score", "setting": "[1]; 0.3 mg/kg", "result": "2.57 ± 0.37"}, {"measurement": "Inflammation score", "setting": "[1]; 1.0 mg/kg", "result": "3.43 ± 0.30"}, {"measurement": "Total injury score", "setting": "[1]; 1.0 mg/kg", "result": "6.00 ± 0.58"}, {"measurement": "Ulcer score", "setting": "[1]; 1.0 mg/kg", "result": "2.57 ± 0.30"}, {"measurement": "clearance", "setting": "[4]", "result": 46.3, "unit": "mL/min/kg"}, {"measurement": "bioavailability", "setting": "[4]; read-out: Bioavailability F (%)", "result": 41.6, "unit": "%"}, {"measurement": "AUC", "setting": "[4]; read-out: Concentration Integration AUC", "result": 1.12, "unit": "µM·h"}, {"measurement": "half-life", "setting": "[4]; read-out: Half-life T1/2 (converted)", "result": 5.24, "unit": "h"}]}]}
